# In patent US12458614B2, “Therapeutic agents for improved mobility and cognitive function and for treating neurodegenerative diseases and lysosomal storage disorders” (priority 2017, dated 2025):
# Tests used:
# [1] = system: patient with progressive gait disorder; assay: Case study Example 26, quantitative gait analysis; type: in vivo, human
# [2] = system: patient with GM1 Gangliosidosis; assay: Case study, GM1 Gangliosidosis; type: in vivo, human; settings: after one month, 1.5 g then 3 g per day
# Source text: For example, to evaluate overall neurological status, mDRS, a four-domain scale (ambulation, manipulation, language and swallowing), may be applied. Cerebellar function may be evaluated using SARA, an eight-item clinical rating scale (gait, stance, sitting, speech, fine motor function and taxis; range 0-40, where 0 is the best neurological status and 40 the worst), and SCAFI, comprising the 8-m-Walking-Time (8MW; performed by having patients walking twice as quickly as possible from one line to another excluding turning), 9-Hole-Peg-Test (9HPT) and the number of “PATA” repetitions over 10 s. Subjective impairment and quality of life may be evaluated using the EQ-5D-5L questionnaire and VAS. To assess ocular motor function, 3-dimensional videooculography (EyeSeeCam) may be used to measure the peak velocity of saccades, gain of smooth pursuit, peak slow phase velocity of gaze-evoked nystagmus (gaze-holding function), peak slow phase velocity of optokinetic nystagmus, and gain of horizontal vestibulo-ocular reflex. To evaluate the cognitive state, WAIS-R or WISC-IV, and MoCA, assessing different cognitive domains, including attention and concentration, executive functions, memory, language, visuoconstructional skills, conceptual thinking, calculations, and orientation with a maximum of 30 points and a cut-off score of 26, may be used. […]
# [3] = system: Sandhoff disease model, Hexb−/− mouse; assay: Bar crossing test; type: in vivo; settings: Sandhoff mice, 0.1 g/kg from 3 weeks of age
# Source text: This study made use of a mouse model of Sandhoff disease, the Hexb^−/− mouse, as descrbed in Jeyakumar et al. (Jeyakumar, M. et al. (1999) Proc. Natl. Acad. Sci. USA 96: 6388-6393). The bar crossing test is a method for assessing motor function in mice in which the mouse is placed hanging from the centre of a horizontal bar by its front limbs. A wild-type mouse with normal motor function will be able to engage its hind limbs and thereby move to one of the platforms at either end of the bar, and in doing so complete the test. […] In FIG. 7 B, acetyl-leucine treatment of 0.1 g/kg body weight was provided from 3 weeks of age. The acetyl-leucine treated Sandhoff mice retained the ability to complete the test up to 13 weeks of age (inclusive). Data shown is the mean of 6 mice per group. The treated Sandhoff mice retained the ability to complete the test up to 13 weeks of age (inclusive).
compound,measurement,setting,value
CC(=O)NC(CC(C)C)C(=O)O (racemic) [acetyl-DL-leucine],Gait (patient and spouse report),[1]; 3 gram per day for two weeks,considerable improvement of gait
same,Functioning and quality of living (spouse report),"[1]; Day 42, 3 gram per day restarted",dramatic improvement
same,Self-chosen gait velocity,"[1]; Day 42, from 55 cm/sec",62 cm/s
same,Maximal gait velocity,"[1]; Day 42, from 84 cm/sec",130 cm/s
same,Symptoms after medication was stopped,[1]; in vivo,worsening of symptoms
same,Clinical re-examination,[2],"stable general condition, increased gait (more fluent), and stable stance in natural position"
same,Age up to which ability to complete the bar crossing test was retained (inclusive),[3],up to 13 weeks of age
same,"Motor function and hind-limb mobility/engagement, bar-crossing test",[3],improved motor function and hind-limb mobility/engagement
